For three compounds, inhibition results are on record in paper PMC7736581, “Activation of the IRE1 RNase through remodeling of the kinase front pocket by ATP-competitive ligands” (Nature Communications, 2020).

Some targets named below: FGFR1 (Homo sapiens, UniProt P11362); KDR (Homo sapiens, UniProt P35968); CDK1/cyclinB (Homo sapiens, UniProt P06493); RAF1(Y340D,Y341D) (Homo sapiens, UniProt P04049, Y340D/Y341D); SLK (Homo sapiens, UniProt Q9H2G2).
What all share (experiment): biochemical
Holding throughout (design): Invitrogen kinase panel: Z'Lyte activity (ATP at Km) or LanthaScreen competitive ATP-site binding, percent inhibition

The target of another experiment is T1, IKK_beta (Homo sapiens, UniProt O14920).
T1 construct: gene IKBKB
T1 sequence (O14920 1-756): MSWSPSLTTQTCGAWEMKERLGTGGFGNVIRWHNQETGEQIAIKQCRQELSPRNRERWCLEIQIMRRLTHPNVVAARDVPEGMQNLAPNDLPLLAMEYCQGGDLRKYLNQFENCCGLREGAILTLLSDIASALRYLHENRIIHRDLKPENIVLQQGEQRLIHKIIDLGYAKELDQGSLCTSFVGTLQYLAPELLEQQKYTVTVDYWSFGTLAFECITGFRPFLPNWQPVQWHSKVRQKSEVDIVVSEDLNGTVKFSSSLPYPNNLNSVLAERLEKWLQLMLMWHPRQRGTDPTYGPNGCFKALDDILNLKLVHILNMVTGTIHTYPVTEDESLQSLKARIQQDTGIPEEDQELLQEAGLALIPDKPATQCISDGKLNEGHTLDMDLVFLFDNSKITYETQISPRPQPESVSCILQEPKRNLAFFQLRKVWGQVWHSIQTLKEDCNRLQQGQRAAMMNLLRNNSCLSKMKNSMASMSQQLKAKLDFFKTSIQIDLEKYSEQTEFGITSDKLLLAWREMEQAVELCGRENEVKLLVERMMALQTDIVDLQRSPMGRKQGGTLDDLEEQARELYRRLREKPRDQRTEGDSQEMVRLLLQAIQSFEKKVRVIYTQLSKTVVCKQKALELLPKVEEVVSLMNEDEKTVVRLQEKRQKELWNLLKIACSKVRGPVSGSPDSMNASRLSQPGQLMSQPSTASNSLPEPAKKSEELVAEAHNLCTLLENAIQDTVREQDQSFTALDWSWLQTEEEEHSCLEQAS

A further experiment addresses T2, RSK2 (Homo sapiens, UniProt P51812).
T2 construct: gene RPS6KA3

In the next experiment the target is T3, PKC_zeta (Homo sapiens, UniProt Q05513).
T3 construct: gene PRKCZ
T3 sequence (Q05513 1-592): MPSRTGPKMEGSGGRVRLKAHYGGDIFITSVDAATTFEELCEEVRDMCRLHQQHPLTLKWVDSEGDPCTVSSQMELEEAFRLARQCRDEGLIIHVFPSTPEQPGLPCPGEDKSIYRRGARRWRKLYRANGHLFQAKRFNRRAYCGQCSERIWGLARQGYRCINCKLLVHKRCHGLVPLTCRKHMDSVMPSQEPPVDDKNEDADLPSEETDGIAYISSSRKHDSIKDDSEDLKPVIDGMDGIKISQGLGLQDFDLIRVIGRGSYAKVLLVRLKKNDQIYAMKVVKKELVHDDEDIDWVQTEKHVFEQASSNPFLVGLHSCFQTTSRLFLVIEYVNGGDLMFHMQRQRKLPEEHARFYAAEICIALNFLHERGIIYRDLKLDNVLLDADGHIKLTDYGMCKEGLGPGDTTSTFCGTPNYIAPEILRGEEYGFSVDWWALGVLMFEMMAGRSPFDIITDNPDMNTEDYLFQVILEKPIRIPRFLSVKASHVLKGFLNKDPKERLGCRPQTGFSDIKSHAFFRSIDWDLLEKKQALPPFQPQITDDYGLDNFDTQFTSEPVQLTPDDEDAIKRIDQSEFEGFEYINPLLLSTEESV

The structures appear in SMILES notation.

Chain of CDK1/cyclinB (P06493 whole entry): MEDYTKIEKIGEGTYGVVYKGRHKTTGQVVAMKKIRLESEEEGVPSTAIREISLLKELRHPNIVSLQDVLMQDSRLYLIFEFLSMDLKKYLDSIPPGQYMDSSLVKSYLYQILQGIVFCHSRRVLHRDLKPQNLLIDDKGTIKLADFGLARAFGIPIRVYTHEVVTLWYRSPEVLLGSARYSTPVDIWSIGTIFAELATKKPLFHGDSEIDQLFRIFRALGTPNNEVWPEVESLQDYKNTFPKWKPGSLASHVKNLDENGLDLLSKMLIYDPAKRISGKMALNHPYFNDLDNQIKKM
Chain of CDK1/cyclinB (P14635 whole entry partner): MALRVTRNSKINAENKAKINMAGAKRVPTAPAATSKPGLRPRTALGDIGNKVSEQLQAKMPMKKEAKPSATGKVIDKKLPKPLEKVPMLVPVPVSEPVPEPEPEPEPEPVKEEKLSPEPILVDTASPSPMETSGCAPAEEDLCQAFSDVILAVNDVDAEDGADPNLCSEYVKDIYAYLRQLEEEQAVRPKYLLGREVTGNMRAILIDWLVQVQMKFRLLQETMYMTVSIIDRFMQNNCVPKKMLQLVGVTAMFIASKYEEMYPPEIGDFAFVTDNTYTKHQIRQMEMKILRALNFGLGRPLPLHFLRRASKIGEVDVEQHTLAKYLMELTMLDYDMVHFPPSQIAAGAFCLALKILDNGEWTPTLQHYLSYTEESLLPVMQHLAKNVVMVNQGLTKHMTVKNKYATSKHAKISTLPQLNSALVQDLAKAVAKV
T2 sequence (P51812 whole entry): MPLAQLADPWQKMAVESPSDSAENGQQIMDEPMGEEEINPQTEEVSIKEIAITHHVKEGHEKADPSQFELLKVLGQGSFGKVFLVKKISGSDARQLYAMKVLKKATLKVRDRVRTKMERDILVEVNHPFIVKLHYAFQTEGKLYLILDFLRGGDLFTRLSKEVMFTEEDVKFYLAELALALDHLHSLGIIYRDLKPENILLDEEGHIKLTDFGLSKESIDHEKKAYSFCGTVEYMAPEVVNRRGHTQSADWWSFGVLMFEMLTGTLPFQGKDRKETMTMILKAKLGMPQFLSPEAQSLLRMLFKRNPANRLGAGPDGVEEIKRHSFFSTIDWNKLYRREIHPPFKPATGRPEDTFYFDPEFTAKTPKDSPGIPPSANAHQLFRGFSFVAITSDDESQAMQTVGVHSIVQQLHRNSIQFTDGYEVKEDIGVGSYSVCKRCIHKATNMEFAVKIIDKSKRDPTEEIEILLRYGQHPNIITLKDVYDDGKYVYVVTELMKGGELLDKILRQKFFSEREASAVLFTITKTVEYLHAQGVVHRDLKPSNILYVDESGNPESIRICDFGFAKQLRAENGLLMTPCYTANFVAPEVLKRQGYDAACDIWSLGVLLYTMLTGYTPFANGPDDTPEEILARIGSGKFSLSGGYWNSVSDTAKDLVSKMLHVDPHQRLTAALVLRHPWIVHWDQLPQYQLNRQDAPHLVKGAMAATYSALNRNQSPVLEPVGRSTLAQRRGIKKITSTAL
Chain of SLK (Q9H2G2 whole entry): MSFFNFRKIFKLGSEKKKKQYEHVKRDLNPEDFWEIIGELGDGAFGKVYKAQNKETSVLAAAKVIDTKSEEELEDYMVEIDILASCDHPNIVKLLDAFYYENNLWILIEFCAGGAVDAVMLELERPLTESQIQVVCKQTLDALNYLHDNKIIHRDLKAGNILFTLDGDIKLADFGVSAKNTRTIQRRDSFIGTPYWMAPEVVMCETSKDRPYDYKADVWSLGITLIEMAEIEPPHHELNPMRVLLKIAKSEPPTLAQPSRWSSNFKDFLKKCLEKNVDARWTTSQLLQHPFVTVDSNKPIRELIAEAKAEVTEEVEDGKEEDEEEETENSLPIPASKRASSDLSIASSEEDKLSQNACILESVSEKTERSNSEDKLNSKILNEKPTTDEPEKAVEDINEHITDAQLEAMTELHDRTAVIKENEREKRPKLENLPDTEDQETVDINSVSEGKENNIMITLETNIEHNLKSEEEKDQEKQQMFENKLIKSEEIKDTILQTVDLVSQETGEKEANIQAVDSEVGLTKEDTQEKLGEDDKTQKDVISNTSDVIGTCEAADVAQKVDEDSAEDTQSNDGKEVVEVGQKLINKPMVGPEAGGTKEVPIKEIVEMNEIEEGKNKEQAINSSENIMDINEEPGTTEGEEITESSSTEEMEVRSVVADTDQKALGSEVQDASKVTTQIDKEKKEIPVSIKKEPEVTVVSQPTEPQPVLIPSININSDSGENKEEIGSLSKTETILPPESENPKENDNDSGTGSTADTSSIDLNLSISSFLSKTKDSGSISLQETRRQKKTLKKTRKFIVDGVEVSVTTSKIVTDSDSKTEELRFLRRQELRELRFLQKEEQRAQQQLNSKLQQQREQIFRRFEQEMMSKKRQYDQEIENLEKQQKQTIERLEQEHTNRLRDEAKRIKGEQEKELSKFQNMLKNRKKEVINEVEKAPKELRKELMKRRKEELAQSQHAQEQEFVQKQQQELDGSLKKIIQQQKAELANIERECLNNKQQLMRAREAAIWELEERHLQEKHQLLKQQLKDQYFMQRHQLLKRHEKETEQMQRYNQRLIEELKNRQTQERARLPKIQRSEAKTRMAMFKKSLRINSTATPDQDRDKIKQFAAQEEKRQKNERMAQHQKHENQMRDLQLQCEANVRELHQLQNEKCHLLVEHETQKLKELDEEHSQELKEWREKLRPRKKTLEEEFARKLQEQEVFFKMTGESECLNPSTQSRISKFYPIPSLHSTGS
Chain of FGFR1 (P11362 whole entry): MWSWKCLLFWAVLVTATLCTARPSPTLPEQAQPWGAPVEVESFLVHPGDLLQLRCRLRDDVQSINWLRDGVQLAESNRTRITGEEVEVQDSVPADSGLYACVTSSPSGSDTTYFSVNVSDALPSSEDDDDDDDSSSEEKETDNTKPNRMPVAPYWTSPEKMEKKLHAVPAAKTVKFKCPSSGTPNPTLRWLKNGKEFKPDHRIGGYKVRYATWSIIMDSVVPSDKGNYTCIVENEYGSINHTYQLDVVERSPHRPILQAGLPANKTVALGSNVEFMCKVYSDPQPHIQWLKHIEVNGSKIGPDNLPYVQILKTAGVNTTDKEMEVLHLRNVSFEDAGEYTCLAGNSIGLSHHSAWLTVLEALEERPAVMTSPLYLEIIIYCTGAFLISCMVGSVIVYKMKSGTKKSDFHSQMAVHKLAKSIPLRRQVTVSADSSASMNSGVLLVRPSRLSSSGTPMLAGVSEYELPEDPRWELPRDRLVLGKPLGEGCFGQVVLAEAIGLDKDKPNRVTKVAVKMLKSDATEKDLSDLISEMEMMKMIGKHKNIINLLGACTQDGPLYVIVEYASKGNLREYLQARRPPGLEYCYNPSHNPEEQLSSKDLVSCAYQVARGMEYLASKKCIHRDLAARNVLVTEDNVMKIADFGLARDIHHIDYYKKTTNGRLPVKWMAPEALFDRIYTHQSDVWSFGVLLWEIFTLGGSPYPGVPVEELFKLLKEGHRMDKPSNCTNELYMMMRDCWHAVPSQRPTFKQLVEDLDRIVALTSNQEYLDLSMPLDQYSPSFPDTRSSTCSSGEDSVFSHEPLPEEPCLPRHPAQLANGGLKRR
Chain of RAF1(Y340D,Y341D) (P04049 whole entry Y340D/Y341D): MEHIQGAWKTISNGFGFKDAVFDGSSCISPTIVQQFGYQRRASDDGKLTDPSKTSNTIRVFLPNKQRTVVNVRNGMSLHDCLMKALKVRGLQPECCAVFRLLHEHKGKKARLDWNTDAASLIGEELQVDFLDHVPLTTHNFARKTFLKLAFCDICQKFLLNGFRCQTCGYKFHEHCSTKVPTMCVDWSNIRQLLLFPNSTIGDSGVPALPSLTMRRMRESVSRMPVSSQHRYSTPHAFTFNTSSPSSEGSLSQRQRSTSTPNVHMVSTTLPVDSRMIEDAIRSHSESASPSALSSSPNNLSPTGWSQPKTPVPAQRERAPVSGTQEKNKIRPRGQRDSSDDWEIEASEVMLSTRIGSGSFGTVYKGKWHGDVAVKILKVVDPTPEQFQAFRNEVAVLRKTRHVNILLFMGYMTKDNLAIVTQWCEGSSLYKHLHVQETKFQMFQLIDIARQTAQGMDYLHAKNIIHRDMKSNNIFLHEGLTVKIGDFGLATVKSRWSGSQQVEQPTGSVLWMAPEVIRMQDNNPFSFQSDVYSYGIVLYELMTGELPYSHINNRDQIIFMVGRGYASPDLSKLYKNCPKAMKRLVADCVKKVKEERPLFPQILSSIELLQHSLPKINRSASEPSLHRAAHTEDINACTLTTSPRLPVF

For `CCOC(=O)Nc1cccc2c(Oc3ncccc3-c3ccnc(N[C@H]4CCCNC4)n3)c(C)ccc12` [G-1749], the inhibition at 1 µM was -2% on IKK_beta; 14% at FGFR1; -18% at KDR; 3.5% on RSK2; 6.5% at CDK1/cyclinB; 24.5% at RAF1(Y340D,Y341D). Moreover, the results for the inhibition at 1 µM on SLK and at PKC_zeta were 10% and 12%, respectively.
Regarding `CC#CC(=O)Nc1cccc2c(Oc3ncccc3-c3ccnc(N[C@H]4CCCNC4)n3)c(C)ccc12` [G-7658], the inhibition at 1 µM at IKK_beta was 0%; on FGFR1, 13%; on KDR, -4%; at RSK2, 0%; at CDK1/cyclinB it was 7.5%; on RAF1(Y340D,Y341D), 1%. Moreover, the inhibition at 1 µM at SLK was found to be 1.5%; on PKC_zeta, 18.5%.
In the case of `O=c1cc(-c2n[nH]c3ncc(-c4c(F)cccc4F)cc23)nc(N2CCC(O)CC2)[nH]1` [G-9807], the inhibition at 1 µM on IKK_beta worked out at 80.4%; on FGFR1, 83.8%; on KDR, 96.3%; on RSK2 it was 98%; on CDK1/cyclinB it was 96.5%; at RAF1(Y340D,Y341D) it was 43.3%. Moreover, the inhibition at 1 µM was found to be 96.9% on SLK and 34.2% on PKC_zeta.
